Laboratory results: ChEMBL document CHEMBL3627596, “Discovery of Novel Inhibitor Scaffolds against the Metallo-β-lactamase VIM-2 by Surface Plasmon Resonance (SPR) Based Fragment Screening” (J Med Chem, 2015)

Experiments:
[1] = target: T1, Beta-lactamase VIM-2 (Pseudomonas aeruginosa, UniProt Q9K2N0); assay: Reversible binding affinity to Pseudomonas aeruginosa 301-5473 metallo-beta-lactamase VIM-2 expressed in Escherichia coli BL21(DE3) measured for 15 secs by SPR analysis
[2] = target: T1, Beta-lactamase VIM-2; assay: Inhibition of Pseudomonas aeruginosa 301-5473 metallo-beta-lactamase VIM-2 expressed in Escherichia coli BL21(DE3) using nitrocefin as substrate preincubated for 5 mins followed by substrate addition measured every 17 secs for 20 mins by microplate reader analysis
[3] = target: Beta-lactamase VIM-2 (Pseudomonas aeruginosa) (UniProt Q9K2N0); settings: 301-5473
Description: Reversible binding affinity to Pseudomonas aeruginosa 301-5473 metallo-beta-lactamase VIM-2 expressed in Escherichia coli BL21(DE3) assessed as association constant measured for 30 secs by SPR analysis

[4] = target: T1, Beta-lactamase VIM-2; assay: Dissociation rate constant to Pseudomonas aeruginosa 301-5473 metallo-beta-lactamase VIM-2 expressed in Escherichia coli BL21(DE3) by SPR analysis
[5] = target: Beta-lactamase VIM-2 (Pseudomonas aeruginosa) (UniProt Q9K2N0); assay: Inhibition of Pseudomonas aeruginosa 301-5473 metallo-beta-lactamase VIM-2 expressed in Escherichia coli BL21(DE3) using nitrocefin as substrate at 500 uM preincubated for 5 mins followed by substrate addition measured every 17 secs for 20 mins by microplate reader analysis relative to control
[6] = target: T1, Beta-lactamase VIM-2; assay: Binding affinity to Pseudomonas aeruginosa 301-5473 metallo-beta-lactamase VIM-2 expressed in Escherichia coli BL21(DE3) measured for 15 secs by SPR analysis

Row | SMILES | Kd [1] | IC50 [2] | Ka [3] | koff [4] | inhibition [5] | Kd [6]
1 | C[C@H](CS)C(=O)N1CCC[C@H]1C(=O)O [CAPTOPRIL] | 0.6 µM | 3.5 µM | 4.2 ×10⁴ /M/s | 0.025 s⁻¹ |  | 
2 | N#Cc1c(C(F)(F)F)cc(-c2cccs2)nc1O |  | 314 µM |  |  | > 15% | 229 µM
3 | O=C(O)c1ccccc1Cc1ccccc1 |  | > 1000 µM |  |  |  | 
4 | O=C(O)c1ccccc1C(=O)c1ccc(Cl)cc1 |  | 12 µM |  |  |  | 
5 | C[C@@H](O)[C@H]1C(=O)N2C(C(=O)O)=C(S[C@@H]3CN[C@H](C(=O)N(C)C)C3)[C@H](C)[C@H]12 [MEROPENEM] | 12 µM |  |  |  |  | 
6 | CC(=O)c1ccccc1C(=O)O |  | > 1000 µM |  |  |  | 
7 | CCCc1ccc(C(=O)CCC(=O)O)cc1 |  | 287 µM |  |  | > 15% | 173 µM
8 | COC(=O)c1ccccc1C(=O)c1ccccc1 |  | > 3000 µM |  |  |  | 
9 | O=C(O)CCCc1c[nH]c2ccccc12 |  | 757 µM |  |  | > 15% | 274 µM
10 | O=C(O)c1ccccc1C(=O)c1ccccc1 [2-BENZOYLBENZOIC ACID] |  | 8 µM |  |  |  | 
11 | N#Cc1coc2ccccc2c1=O |  | 1430 µM |  |  | > 15% | 999 µM
12 | O=C(O)c1cncc(C#Cc2ccccc2)c1 |  | 298 µM |  |  | > 15% | 446 µM
13 | O=C(O)CSc1ccnc2cc(Cl)ccc12 |  | 205 µM |  |  | > 15% | 264 µM
14 | O=C(O)c1ccccc1C(=O)c1ccc(F)cc1 |  | 14 µM |  |  | > 15% | 9 µM
15 | Cn1c(S)nnc1C(F)(F)F |  | 232 µM |  |  | > 15% | 145 µM
